According to BigSolDB 2.1:

Row | solubility (mole fraction) (in DMF, 278.15 K) | solubility (mole fraction) (in DMF, 283.15 K) | solubility (mole fraction) (in DMF, 288.15 K) | solubility (mole fraction) (in DMF, 293.15 K) | solubility (mole fraction) (in DMF, 298.15 K) | solubility (mole fraction) (in DMF, 303.15 K) | solubility (mole fraction) (in DMF, 308.15 K) | solubility (mole fraction) (in DMF, 313.15 K) | solubility (mole fraction) (in DMF, 318.15 K) | solubility (mole fraction) (in water, 278.15 K) | solubility (mole fraction) (in water, 283.15 K) | solubility (mole fraction) (in water, 288.15 K) | solubility (mole fraction) (in water, 293.15 K) | solubility (mole fraction) (in water, 298.15 K) | solubility (mole fraction) (in water, 303.15 K) | solubility (mole fraction) (in water, 308.15 K) | solubility (mole fraction) (in water, 313.15 K) | solubility (mole fraction) (in water, 318.15 K) | Structure (SMILES)
1 | 0.00011 | 0.00012 | 0.00014 | 0.00015 | 0.00017 | 0.00018 | 0.0002 | 0.00021 | 0.00023 | 0.0011 | 0.00115 | 0.00124 | 0.00128 | 0.00135 | 0.00144 | 0.00155 | 0.00164 | 0.00178 | CC(C)CC(N)C(=O)O (racemic)
2 | 0.00023 | 0.00024 | 0.00025 | 0.00026 | 0.00027 | 0.00028 | 0.00029 | 0.0003 | 0.00031 | 0.0025 | 0.00269 | 0.0027 | 0.0029 | 0.003 | 0.0032 | 0.0034 | 0.0036 | 0.0038 | CC[C@H](C)[C@H](N)C(=O)O (racemic)
